Legend:
[1] = system: HeLa; assay: MTS proliferation assay; assay type: cell-based, human; conditions: 72 h
Method in brief: (§1)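 Proliferation is assessed by MTS conversion, measured as 492 nm absorption. Cells are treated for three days (72 h) with four compound concentrations between 0.3 and 10 μM.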

[2] = system: Jurkat; assay: MTS proliferation assay; assay type: cell-based, human; conditions: 72 h
Method in brief: as §1

[3] = Hoechst 33342 nuclear staining; assay type: cell-based; conditions: for Hoechst 33342 nuclear staining score, H460: H460 cells; for Hoechst 33342 nuclear staining score, HeLa: HeLa cells; for Hoechst 33342 nuclear staining score, Jily: Jily cells; for Hoechst 33342 nuclear staining score, Jurkat: Jurkat cells; for Hoechst 33342 nuclear staining score, MRC5: MRC5 cells;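 on all read-outs here: apoptotic nuclei scored 0 none 1 weak under 50% of cells 2 strong over 50% of cells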
Method in brief: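 After a further 30 min incubation, plates were inspected on a standard inverted fluorescence microscope. The fraction of apoptotic nuclei and other apoptosis-specific morphology were scored as 0 for no activity, 1 for weak activity in less than 50% of the cells, and 2 for strong activity in more than 50% of the cells.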

[4] = system: MRC5; assay: MTS proliferation assay; assay type: cell-based; conditions: MRC5, 72 h
Method in brief: as §1

[5] = conc 0.1 (final concentrations in μM), 24 h or 48 h incubation
[6] = conc 0.3 (final concentrations in μM), 24 h or 48 h incubation
[7] = conc 1 (final concentrations in μM), 24 h or 48 h incubation
[8] = conc 3 (final concentrations in μM), 24 h or 48 h incubation
[9] = conc 10 (final concentrations in μM), 24 h or 48 h incubation

COc1cc(-c2cc(-c3cccnc3)cn2S(=O)(=O)c2ccc(OC(F)(F)F)cc2)cc(OC)c1OC [Example 77]
IC50 [1]: > 1 µM | IC50 [2]: > 1 µM | Hoechst 33342 nuclear staining score, H460 ([3]; conc 0.1): 0 | Hoechst 33342 nuclear staining score, H460 ([3]; conc 0.3): 0 | Hoechst 33342 nuclear staining score, H460 ([3]; conc 1): 0 | Hoechst 33342 nuclear staining score, H460 ([3]; conc 3): 1 (weak activity comprising less than 50% of the cells) | Hoechst 33342 nuclear staining score, HeLa ([3]; conc 0.1): 0 | Hoechst 33342 nuclear staining score, HeLa ([3]; conc 0.3): 0 | Hoechst 33342 nuclear staining score, HeLa ([3]; conc 1): 0 | Hoechst 33342 nuclear staining score, HeLa ([3]; conc 3): 0 | Hoechst 33342 nuclear staining score, Jily ([3]; conc 0.1): 0 | Hoechst 33342 nuclear staining score, Jily ([3]; conc 0.3): 0 | Hoechst 33342 nuclear staining score, Jily ([3]; conc 1): 0 | Hoechst 33342 nuclear staining score, Jily ([3]; conc 3): 1 (weak activity comprising less than 50% of the cells) | Hoechst 33342 nuclear staining score, Jurkat ([3]; conc 0.1): 0 | Hoechst 33342 nuclear staining score, Jurkat ([3]; conc 0.3): 0 | Hoechst 33342 nuclear staining score, Jurkat ([3]; conc 1): 0 | Hoechst 33342 nuclear staining score, Jurkat ([3]; conc 3): 2 (strong activity comprising more than 50% of the cells) | Hoechst 33342 nuclear staining score, MRC5 ([3]; conc 0.1): 0 | Hoechst 33342 nuclear staining score, MRC5 ([3]; conc 0.3): 0 | Hoechst 33342 nuclear staining score, MRC5 ([3]; conc 1): 0 | Hoechst 33342 nuclear staining score, MRC5 ([3]; conc 3): 0 | Hoechst 33342 nuclear staining score, PBLs ([3]; conc 0.1): 0 | Hoechst 33342 nuclear staining score, PBLs ([3]; conc 0.3): 0 | Hoechst 33342 nuclear staining score, PBLs ([3]; conc 1): 0 | Hoechst 33342 nuclear staining score, PBLs ([3]; conc 3): 0 | IC50 [4]: > 1 µM

Cc1ccc(S(=O)(=O)n2cc(CN3CCN(c4ccccn4)CC3)cc2-c2ccc3c(c2)OCO3)cc1 [Example 32]
IC50 [1]: > 1 µM | IC50 [2]: > 1 µM | Hoechst 33342 nuclear staining score, HeLa [3, 5]: 0 | Hoechst 33342 nuclear staining score, HeLa [3, 6]: 0 | Hoechst 33342 nuclear staining score, HeLa [3, 7]: 0 | Hoechst 33342 nuclear staining score, HeLa [3, 8]: 0 | Hoechst 33342 nuclear staining score, Jurkat [3, 5]: 0 | Hoechst 33342 nuclear staining score, Jurkat [3, 6]: 0 | Hoechst 33342 nuclear staining score, Jurkat [3, 7]: 0 | Hoechst 33342 nuclear staining score, Jurkat [3, 8]: 0 | IC50 [4]: > 1 µM

CCN1CCN(CCNCc2cc(-c3ccc4c(c3)OCO4)n(S(=O)(=O)c3ccc(C)cc3)c2)CC1 [Example 15]
IC50 [1]: > 1 µM | IC50 [2]: > 1 µM | Hoechst 33342 nuclear staining score, HeLa [3, 5]: 0 | Hoechst 33342 nuclear staining score, HeLa [3, 6]: 0 | Hoechst 33342 nuclear staining score, HeLa [3, 7]: 0 | Hoechst 33342 nuclear staining score, HeLa [3, 8]: 0 | Hoechst 33342 nuclear staining score, Jurkat [3, 5]: 0 | Hoechst 33342 nuclear staining score, Jurkat [3, 6]: 0 | Hoechst 33342 nuclear staining score, Jurkat [3, 7]: 0 | Hoechst 33342 nuclear staining score, Jurkat [3, 8]: 0 | IC50 [4]: > 1 µM

CCN1CCN(c2ccc(NCc3cc(-c4ccc5c(c4)OCO5)n(S(=O)(=O)c4ccc(C)cc4)c3)cc2)CC1 [Example 37]
IC50 [1]: > 1 µM | IC50 [2]: > 1 µM | Hoechst 33342 nuclear staining score, HeLa [3, 6]: 0 | Hoechst 33342 nuclear staining score, HeLa [3, 7]: 0 | Hoechst 33342 nuclear staining score, HeLa [3, 8]: 0 | Hoechst 33342 nuclear staining score, HeLa [3, 9]: 0 | Hoechst 33342 nuclear staining score, Jurkat [3, 6]: 0 | Hoechst 33342 nuclear staining score, Jurkat [3, 7]: 0 | Hoechst 33342 nuclear staining score, Jurkat [3, 8]: 0 | Hoechst 33342 nuclear staining score, Jurkat [3, 9]: 0 | IC50 [4]: > 1 µM

Cc1ccc(S(=O)(=O)n2cc(CN(C)C3CCN(C)CC3)cc2-c2ccc3c(c2)OCO3)cc1 [Example 26]
IC50 [1]: > 1 µM | IC50 [2]: > 1 µM | Hoechst 33342 nuclear staining score, HeLa [3, 5]: 0 | Hoechst 33342 nuclear staining score, HeLa [3, 6]: 0 | Hoechst 33342 nuclear staining score, HeLa [3, 7]: 0 | Hoechst 33342 nuclear staining score, HeLa [3, 8]: 0 | Hoechst 33342 nuclear staining score, Jurkat [3, 5]: 0 | Hoechst 33342 nuclear staining score, Jurkat [3, 6]: 0 | Hoechst 33342 nuclear staining score, Jurkat [3, 7]: 0 | Hoechst 33342 nuclear staining score, Jurkat [3, 8]: 0 | IC50 [4]: > 1 µM

Cc1ccc(S(=O)(=O)n2cc(CNc3ccc(-n4ccnc4)cc3)cc2-c2ccc3c(c2)OCO3)cc1 [Example 40]
IC50 [1]: > 1 µM | IC50 [2]: > 1 µM | Hoechst 33342 nuclear staining score, HeLa [3, 6]: 0 | Hoechst 33342 nuclear staining score, HeLa [3, 7]: 0 | Hoechst 33342 nuclear staining score, HeLa [3, 8]: 0 | Hoechst 33342 nuclear staining score, HeLa [3, 9]: 0 | Hoechst 33342 nuclear staining score, Jurkat [3, 6]: 0 | Hoechst 33342 nuclear staining score, Jurkat [3, 7]: 0 | Hoechst 33342 nuclear staining score, Jurkat [3, 8]: 0 | Hoechst 33342 nuclear staining score, Jurkat [3, 9]: 0 | IC50 [4]: > 1 µM

Cc1ccc(S(=O)(=O)n2cc(CNCCN3CCCC3)cc2-c2ccc3c(c2)OCO3)cc1 [Example 17]
IC50 [1]: > 1 µM | IC50 [2]: > 1 µM | Hoechst 33342 nuclear staining score, HeLa [3, 5]: 0 | Hoechst 33342 nuclear staining score, HeLa [3, 6]: 0 | Hoechst 33342 nuclear staining score, HeLa [3, 7]: 0 | Hoechst 33342 nuclear staining score, HeLa [3, 8]: 0 | Hoechst 33342 nuclear staining score, Jurkat [3, 5]: 0 | Hoechst 33342 nuclear staining score, Jurkat [3, 6]: 0 | Hoechst 33342 nuclear staining score, Jurkat [3, 7]: 0 | Hoechst 33342 nuclear staining score, Jurkat [3, 8]: 0 | IC50 [4]: > 1 µM

Cc1ccc(S(=O)(=O)n2cc(-c3ccc(C(N)=O)cc3)cc2-c2cccs2)cc1 [Example 52]
IC50 [1]: > 1 µM | IC50 [2]: > 1 µM | Hoechst 33342 nuclear staining score, HeLa [3, 5]: 0 | Hoechst 33342 nuclear staining score, HeLa [3, 6]: 0 | Hoechst 33342 nuclear staining score, HeLa [3, 7]: 0 | Hoechst 33342 nuclear staining score, HeLa [3, 8]: 0 | Hoechst 33342 nuclear staining score, Jurkat [3, 5]: 0 | Hoechst 33342 nuclear staining score, Jurkat [3, 6]: 0 | Hoechst 33342 nuclear staining score, Jurkat [3, 7]: 0 | Hoechst 33342 nuclear staining score, Jurkat [3, 8]: 0 | IC50 [4]: > 1 µM

Cc1ccc(S(=O)(=O)n2cc(-c3ccc(C#N)cc3)cc2-c2cccs2)cc1 [Example 54]
IC50 [1]: > 1 µM | IC50 [2]: < 1 µM | Hoechst 33342 nuclear staining score, H460 [3, 5]: 0 | Hoechst 33342 nuclear staining score, H460 [3, 6]: 0 | Hoechst 33342 nuclear staining score, H460 [3, 7]: 0 | Hoechst 33342 nuclear staining score, H460 [3, 8]: 0 | Hoechst 33342 nuclear staining score, HeLa [3, 5]: 0 | Hoechst 33342 nuclear staining score, HeLa [3, 6]: 0 | Hoechst 33342 nuclear staining score, HeLa [3, 7]: 0 | Hoechst 33342 nuclear staining score, HeLa [3, 8]: 0 | Hoechst 33342 nuclear staining score, Jily [3, 5]: 0 | Hoechst 33342 nuclear staining score, Jily [3, 6]: 0 | Hoechst 33342 nuclear staining score, Jily [3, 7]: 0 | Hoechst 33342 nuclear staining score, Jily [3, 8]: 0 | Hoechst 33342 nuclear staining score, Jurkat [3, 5]: 0 | Hoechst 33342 nuclear staining score, Jurkat [3, 6]: 0 | Hoechst 33342 nuclear staining score, Jurkat [3, 7]: 0 | Hoechst 33342 nuclear staining score, Jurkat [3, 8]: 0 | Hoechst 33342 nuclear staining score, MRC5 [3, 5]: 0 | Hoechst 33342 nuclear staining score, MRC5 [3, 6]: 0 | Hoechst 33342 nuclear staining score, MRC5 [3, 7]: 0 | Hoechst 33342 nuclear staining score, MRC5 [3, 8]: 0 | Hoechst 33342 nuclear staining score, PBLs [3, 5]: 0 | Hoechst 33342 nuclear staining score, PBLs [3, 6]: 0 | Hoechst 33342 nuclear staining score, PBLs [3, 7]: 0 | Hoechst 33342 nuclear staining score, PBLs [3, 8]: 0 | IC50 [4]: > 1 µM

Cc1ccc(S(=O)(=O)n2cc(CNCCN3CCCCC3)cc2-c2ccc3c(c2)OCO3)cc1 [Example 18]
IC50 [1]: > 1 µM | IC50 [2]: > 1 µM | Hoechst 33342 nuclear staining score, HeLa [3, 5]: 0 | Hoechst 33342 nuclear staining score, HeLa [3, 6]: 0 | Hoechst 33342 nuclear staining score, HeLa [3, 7]: 0 | Hoechst 33342 nuclear staining score, HeLa [3, 8]: 0 | Hoechst 33342 nuclear staining score, Jurkat [3, 5]: 0 | Hoechst 33342 nuclear staining score, Jurkat [3, 6]: 0 | Hoechst 33342 nuclear staining score, Jurkat [3, 7]: 0 | Hoechst 33342 nuclear staining score, Jurkat [3, 8]: 0 | IC50 [4]: > 1 µM

CCN(CC)CCNCc1cc(-c2ccc3c(c2)OCO3)n(S(=O)(=O)c2ccc(C)cc2)c1 [Example 20]
IC50 [1]: > 1 µM | IC50 [2]: > 1 µM | Hoechst 33342 nuclear staining score, HeLa [3, 5]: 0 | Hoechst 33342 nuclear staining score, HeLa [3, 6]: 0 | Hoechst 33342 nuclear staining score, HeLa [3, 7]: 0 | Hoechst 33342 nuclear staining score, HeLa [3, 8]: 0 | Hoechst 33342 nuclear staining score, Jurkat [3, 5]: 0 | Hoechst 33342 nuclear staining score, Jurkat [3, 6]: 0 | Hoechst 33342 nuclear staining score, Jurkat [3, 7]: 0 | Hoechst 33342 nuclear staining score, Jurkat [3, 8]: 0 | IC50 [4]: > 1 µM

Cc1ccc(S(=O)(=O)n2cc(-c3ccc(C#N)cc3)cc2-c2ccc3c(c2)OCO3)cc1 [Example 48]
IC50 [1]: > 1 µM | IC50 [2]: > 1 µM | Hoechst 33342 nuclear staining score, HeLa [3, 5]: 0 | Hoechst 33342 nuclear staining score, HeLa [3, 6]: 0 | Hoechst 33342 nuclear staining score, HeLa [3, 7]: 0 | Hoechst 33342 nuclear staining score, HeLa [3, 8]: 0 | Hoechst 33342 nuclear staining score, Jurkat [3, 5]: 0 | Hoechst 33342 nuclear staining score, Jurkat [3, 6]: 0 | Hoechst 33342 nuclear staining score, Jurkat [3, 7]: 0 | Hoechst 33342 nuclear staining score, Jurkat [3, 8]: 0 | IC50 [4]: > 1 µM
